Experimental data taken from patent publication EP4745135A1 (Gluetacs Therapeutics (Shanghai) Co., Ltd., priority 2023, dated 2025).

Columns and labels:
[1] = tested on: GSPT1; assay: Western blot, degradation of substrate protein in hPBMCs; format: cell-based, Human
[2] = target: T1, human Cereblon WT GST-tagged protein (Homo sapiens, UniProt Q96SW2); assay: CRBN-binding affinity, HTRF (CEREBLON BINDING kit); settings: for inhibition at 0.5 µM: read-out: Inhibition Rate at 0.5 µM (%); for inhibition at 2 µM: read-out: Inhibition Rate at 2 µM (%)
T1 construct: purchased CISBIO 64BDCRBNPEH
T1 sequence (Q96SW2 whole entry): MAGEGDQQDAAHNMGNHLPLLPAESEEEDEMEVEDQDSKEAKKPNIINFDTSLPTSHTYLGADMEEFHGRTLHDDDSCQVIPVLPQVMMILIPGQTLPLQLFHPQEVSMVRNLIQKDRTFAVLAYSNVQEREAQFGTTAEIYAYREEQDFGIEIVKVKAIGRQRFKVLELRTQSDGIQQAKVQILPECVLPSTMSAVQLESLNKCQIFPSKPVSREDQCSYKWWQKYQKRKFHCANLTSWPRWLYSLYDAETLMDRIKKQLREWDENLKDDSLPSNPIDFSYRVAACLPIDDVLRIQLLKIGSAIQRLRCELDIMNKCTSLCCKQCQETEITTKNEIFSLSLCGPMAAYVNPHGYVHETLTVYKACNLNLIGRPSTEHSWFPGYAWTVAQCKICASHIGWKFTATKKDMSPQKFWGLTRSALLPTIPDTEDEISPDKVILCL

[3] = target: T2, WEE1 (Homo sapiens, UniProt P30291+Q96SW2); assay: Western blot, degradation of substrate protein in hPBMCs; format: cell-based
T2 construct: effects of the compounds of the present disclosure on the expression of target proteins in cells; endogenous in cells; host or cells: human PBMCs (Milecell Biotechnologies)
T2 sequence (P30291 whole entry): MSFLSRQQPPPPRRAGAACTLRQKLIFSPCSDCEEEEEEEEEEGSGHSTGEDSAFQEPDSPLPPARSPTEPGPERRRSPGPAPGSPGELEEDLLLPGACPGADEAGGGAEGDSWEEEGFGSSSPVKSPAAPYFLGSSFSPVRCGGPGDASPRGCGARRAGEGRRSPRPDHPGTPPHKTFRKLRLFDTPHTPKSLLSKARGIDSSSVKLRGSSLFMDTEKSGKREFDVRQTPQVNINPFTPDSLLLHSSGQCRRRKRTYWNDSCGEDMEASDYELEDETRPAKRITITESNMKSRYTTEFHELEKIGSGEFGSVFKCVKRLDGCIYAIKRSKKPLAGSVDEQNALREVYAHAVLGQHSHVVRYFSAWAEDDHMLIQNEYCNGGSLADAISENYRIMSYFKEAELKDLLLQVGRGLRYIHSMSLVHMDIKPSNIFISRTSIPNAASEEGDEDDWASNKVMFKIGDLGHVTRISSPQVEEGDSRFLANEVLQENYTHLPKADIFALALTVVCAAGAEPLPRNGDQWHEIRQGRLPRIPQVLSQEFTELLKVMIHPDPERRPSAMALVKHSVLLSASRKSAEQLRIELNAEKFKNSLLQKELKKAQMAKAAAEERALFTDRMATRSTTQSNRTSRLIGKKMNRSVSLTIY
T2 sequence (Q96SW2 whole entry): as the sequence (Q96SW2 whole entry) above
T2 sequence (Q16531 whole entry partner): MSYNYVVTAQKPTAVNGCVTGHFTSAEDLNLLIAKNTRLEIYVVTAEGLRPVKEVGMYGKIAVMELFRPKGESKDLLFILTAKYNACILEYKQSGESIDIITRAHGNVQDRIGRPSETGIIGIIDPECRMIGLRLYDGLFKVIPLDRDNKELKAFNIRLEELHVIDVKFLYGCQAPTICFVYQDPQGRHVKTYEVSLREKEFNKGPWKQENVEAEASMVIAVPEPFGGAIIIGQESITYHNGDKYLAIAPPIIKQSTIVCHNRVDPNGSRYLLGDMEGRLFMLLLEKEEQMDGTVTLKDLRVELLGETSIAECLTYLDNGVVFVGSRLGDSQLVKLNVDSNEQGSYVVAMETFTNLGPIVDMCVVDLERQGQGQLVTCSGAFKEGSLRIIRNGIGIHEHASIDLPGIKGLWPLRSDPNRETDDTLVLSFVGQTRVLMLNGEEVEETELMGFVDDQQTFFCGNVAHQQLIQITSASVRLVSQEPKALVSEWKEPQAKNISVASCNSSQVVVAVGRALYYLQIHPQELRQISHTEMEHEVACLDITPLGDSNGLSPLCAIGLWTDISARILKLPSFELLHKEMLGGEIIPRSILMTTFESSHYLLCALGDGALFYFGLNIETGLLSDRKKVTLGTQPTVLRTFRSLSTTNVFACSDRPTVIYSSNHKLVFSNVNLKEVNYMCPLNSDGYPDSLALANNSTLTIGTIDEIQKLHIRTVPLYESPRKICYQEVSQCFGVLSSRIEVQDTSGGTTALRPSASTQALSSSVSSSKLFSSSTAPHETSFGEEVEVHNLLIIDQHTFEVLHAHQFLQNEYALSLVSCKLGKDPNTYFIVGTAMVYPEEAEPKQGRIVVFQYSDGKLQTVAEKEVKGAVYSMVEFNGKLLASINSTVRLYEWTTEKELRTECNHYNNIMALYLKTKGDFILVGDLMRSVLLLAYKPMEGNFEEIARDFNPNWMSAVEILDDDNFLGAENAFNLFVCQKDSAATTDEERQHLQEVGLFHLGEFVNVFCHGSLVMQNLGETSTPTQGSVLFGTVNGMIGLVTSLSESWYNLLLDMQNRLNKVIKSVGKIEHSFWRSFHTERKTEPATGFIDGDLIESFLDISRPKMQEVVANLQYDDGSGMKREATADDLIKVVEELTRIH

[4] = target: T3, IKZF1 (Homo sapiens, UniProt Q13422+Q96SW2); assay: as above; format: cell-based
T3 construct: effects of the compounds of the present disclosure on the expression of target proteins in cells; endogenous in cells; host or cells: human PBMCs (Milecell Biotechnologies)
T3 sequence (Q13422 whole entry): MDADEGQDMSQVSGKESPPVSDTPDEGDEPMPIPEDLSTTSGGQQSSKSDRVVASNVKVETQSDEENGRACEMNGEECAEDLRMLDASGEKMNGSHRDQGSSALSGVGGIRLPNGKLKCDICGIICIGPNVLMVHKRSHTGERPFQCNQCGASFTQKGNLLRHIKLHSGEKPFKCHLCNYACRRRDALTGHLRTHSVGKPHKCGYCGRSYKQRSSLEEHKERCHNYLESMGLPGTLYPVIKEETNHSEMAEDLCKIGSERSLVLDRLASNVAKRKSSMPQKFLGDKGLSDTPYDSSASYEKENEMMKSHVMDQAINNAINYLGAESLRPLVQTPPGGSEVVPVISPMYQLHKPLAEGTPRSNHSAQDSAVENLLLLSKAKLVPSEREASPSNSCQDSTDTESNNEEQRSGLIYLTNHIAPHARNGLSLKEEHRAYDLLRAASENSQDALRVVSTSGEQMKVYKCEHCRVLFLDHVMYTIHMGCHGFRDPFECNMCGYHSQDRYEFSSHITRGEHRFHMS
T3 sequence (Q96SW2 whole entry): as the sequence (Q96SW2 whole entry) above
T3 sequence (Q16531 whole entry partner): as the sequence (Q16531 whole entry partner) above

[5] = target: T4, CK1α (Homo sapiens, UniProt P48729+Q96SW2); assay: as above; format: cell-based
T4 construct: effects of the compounds of the present disclosure on the expression of target proteins in cells; endogenous in cells; host or cells: human PBMCs (Milecell Biotechnologies)
T4 sequence (P48729 whole entry): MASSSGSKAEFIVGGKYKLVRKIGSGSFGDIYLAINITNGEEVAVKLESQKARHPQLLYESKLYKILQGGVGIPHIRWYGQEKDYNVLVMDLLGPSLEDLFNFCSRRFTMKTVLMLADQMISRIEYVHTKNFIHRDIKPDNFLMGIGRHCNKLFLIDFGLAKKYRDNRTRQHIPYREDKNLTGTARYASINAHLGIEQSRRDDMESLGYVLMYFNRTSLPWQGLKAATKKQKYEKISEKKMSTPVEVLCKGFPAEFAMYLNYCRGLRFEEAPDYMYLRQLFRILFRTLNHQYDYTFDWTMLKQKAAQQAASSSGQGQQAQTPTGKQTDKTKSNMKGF
T4 sequence (Q96SW2 whole entry): as the sequence (Q96SW2 whole entry) above
T4 sequence (Q16531 whole entry partner): as the sequence (Q16531 whole entry partner) above

[6] = target: T5, IKZF3 (Homo sapiens, UniProt Q96SW2+Q9UKT9); assay: as above; format: cell-based
T5 construct: effects of the compounds of the present disclosure on the expression of target proteins in cells; endogenous in cells; host or cells: human PBMCs (Milecell Biotechnologies)
T5 sequence (Q9UKT9 whole entry): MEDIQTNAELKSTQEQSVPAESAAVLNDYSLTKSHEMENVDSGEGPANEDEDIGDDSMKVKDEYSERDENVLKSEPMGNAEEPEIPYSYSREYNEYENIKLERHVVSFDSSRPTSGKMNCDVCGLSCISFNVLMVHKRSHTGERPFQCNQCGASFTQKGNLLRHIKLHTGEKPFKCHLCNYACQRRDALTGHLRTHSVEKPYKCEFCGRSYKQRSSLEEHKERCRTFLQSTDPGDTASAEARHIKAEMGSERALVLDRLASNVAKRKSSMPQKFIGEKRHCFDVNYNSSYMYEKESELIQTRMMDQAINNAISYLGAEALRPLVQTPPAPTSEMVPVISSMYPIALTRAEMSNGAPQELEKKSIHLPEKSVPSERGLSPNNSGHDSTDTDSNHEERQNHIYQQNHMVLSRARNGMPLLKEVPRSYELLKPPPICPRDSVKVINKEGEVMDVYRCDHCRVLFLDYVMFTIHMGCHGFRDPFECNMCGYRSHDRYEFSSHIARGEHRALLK
T5 sequence (Q96SW2 whole entry): as the sequence (Q96SW2 whole entry) above
T5 sequence (Q16531 whole entry partner): as the sequence (Q16531 whole entry partner) above

[7] = target: T6, IKZF2 (Homo sapiens, UniProt Q96SW2+Q9UKS7); assay: as above; format: cell-based
T6 construct: effects of the compounds of the present disclosure on the expression of target proteins in cells; endogenous in cells; host or cells: human PBMCs (Milecell Biotechnologies)
T6 sequence (Q9UKS7 whole entry): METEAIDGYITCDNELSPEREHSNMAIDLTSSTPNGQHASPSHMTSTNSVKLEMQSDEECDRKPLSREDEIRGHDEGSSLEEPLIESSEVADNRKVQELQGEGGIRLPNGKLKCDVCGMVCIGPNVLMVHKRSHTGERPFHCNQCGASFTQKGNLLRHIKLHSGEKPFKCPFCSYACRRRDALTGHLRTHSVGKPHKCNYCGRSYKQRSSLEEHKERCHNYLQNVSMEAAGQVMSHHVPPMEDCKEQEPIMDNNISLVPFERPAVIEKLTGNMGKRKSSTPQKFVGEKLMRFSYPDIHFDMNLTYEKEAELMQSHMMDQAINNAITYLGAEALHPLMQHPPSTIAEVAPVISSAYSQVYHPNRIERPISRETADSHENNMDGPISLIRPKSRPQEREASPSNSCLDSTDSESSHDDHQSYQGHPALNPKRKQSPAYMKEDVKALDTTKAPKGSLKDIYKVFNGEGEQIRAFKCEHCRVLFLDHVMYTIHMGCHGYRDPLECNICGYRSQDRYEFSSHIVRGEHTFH
T6 sequence (Q96SW2 whole entry): as the sequence (Q96SW2 whole entry) above
T6 sequence (Q16531 whole entry partner): as the sequence (Q16531 whole entry partner) above

[8] = Western blot, 24 hours of compound treatment, compounds tested at 50 nM and 500 nM (concentration for the table not stated)
[9] = 24 hours treatment, compounds at 50 nM and 500 nM (concentration behind the class not stated)

Row | Compound | GSPT1 substrate protein remaining % [1, 8] | inhibition at 0.5 µM [2] [%] | inhibition at 2 µM [2] [%] | Wee1 substrate protein remaining % [3, 8] | IKZF 1 substrate protein remaining % [4, 8] | CK1α substrate protein remaining % [5, 8] | IKZF3 substrate protein remaining % [6, 8] | IKZF2 substrate protein remaining % [7, 8] | GSPT1 substrate protein remaining % [1, 9] | Wee1 substrate protein remaining % [3, 9] | IKZF 1 substrate protein remaining % [4, 9] | CK1α substrate protein remaining % [5, 9] | IKZF3 substrate protein remaining % [6, 9] | IKZF2 substrate protein remaining % [7, 9] | IC50 ([2]; CRBN binding, HTRF, 3 hours at room temperature, read-out: HTRF IC50) [nM]
1 | Cn1cc(C2=CCN(Cc3cccc4c3CN(C3CCC(=O)NC3=O)C4=S)CC2)c2ccc(F)cc21 (stereo not drawn) [GT-08493, 3-(4-((4-(6-fluoro-1-methyl-1H-indol-3-yl)-3,6-dihydropyridin-1(2H)-yl)methyl)-1-thioxoisoindolin-2-yl)piperidine-2,6-dione] | A (0% ≤ substrate protein remaining % ≤ 80%) | 40 to 53 | 80 to 100 | B (80%< substrate protein remaining %≤ 100%) | B (80%< substrate protein remaining %≤ 100%) | B (80%< substrate protein remaining %≤ 100%) | B (80%< substrate protein remaining %≤ 100%) | A (0% ≤ substrate protein remaining % ≤ 80%) | – | – | – | – | – | – | –
2 | Cc1nc(C2CCN(Cc3cccc4c3CN(C3CCC(=O)NC3=O)C4=S)CC2)c2c3c(sc2n1)CCCC3 (stereo not drawn) [GT-08933, 3-(4-((4-(2-methyl-5,6,7,8-tetrahydrobenzo[4,5]thieno[2,3-d]pyrimidin-4-yl)piperidin-1-yl)methyl)-1-thioxoisoindolin-2-yl)piperidine-2,6-dione] | – | 53 to 60 | 60 to 80 | – | – | – | – | – | A (0% ≤ substrate protein remaining % ≤ 80%) | A (0% ≤ substrate protein remaining % ≤ 80%) | A (0% ≤ substrate protein remaining % ≤ 80%) | B (80%< substrate protein remaining %≤ 100%) | B (80%< substrate protein remaining %≤ 100%) | B (80%< substrate protein remaining %≤ 100%) | –
3 | Cc1nc(C2=CCN(Cc3cccc4c3CN(C3CCC(=O)NC3=O)C4=S)CC2)c2ccsc2n1 (stereo not drawn) [GT-08959, 3-(4-((4-(2-methylthieno[2,3-d]pyrimidin-4-yl)-3,6-dihydropyridin-1(2H)-yl)methyl)-1-thioxoisoindolin-2-yl)piperidine-2,6-dione] | – | 60 to 80 | 80 to 100 | – | – | – | – | – | B (80%< substrate protein remaining %≤ 100%) | A (0% ≤ substrate protein remaining % ≤ 80%) | B (80%< substrate protein remaining %≤ 100%) | B (80%< substrate protein remaining %≤ 100%) | B (80%< substrate protein remaining %≤ 100%) | B (80%< substrate protein remaining %≤ 100%) | –
4 | O=C1CCC(N2Cc3c(CN4CCN(c5c(F)c(F)nc(F)c5F)CC4)cccc3C2=S)C(=O)N1 (stereo not drawn) [GT-08809, 3-(4-((4-(perfluoropyridin-4-yl)piperazin-1-yl)methyl)-1-thioxoisoindolin-2-yl)piperidine-2,6-dione] | A (0% ≤ substrate protein remaining % ≤ 80%) | 53 to 60 | 80 to 100 | A (0% ≤ substrate protein remaining % ≤ 80%) | A (0% ≤ substrate protein remaining % ≤ 80%) | B (80%< substrate protein remaining %≤ 100%) | A (0% ≤ substrate protein remaining % ≤ 80%) | A (0% ≤ substrate protein remaining % ≤ 80%) | – | – | – | – | – | – | –
5 | Cc1nc(C2=CCN(Cc3ccc4c(c3)CN(C3CCC(=O)NC3=O)C4=S)CC2)c2c3c(sc2n1)CCC3 (stereo not drawn) [GT-09326, 3-(5-((4-(2-methyl-6,7-dihydro-5H-cyclopenta[4,5]thieno[2,3-d]pyrimidin-4-yl)-3,6-dihydropyridin-1(2H)-yl)methyl)-1-thioxoisoindolin-2-yl)piperidine-2,6-dione] | – | 53 to 60 | 80 to 100 | – | – | – | – | – | A (0% ≤ substrate protein remaining % ≤ 80%) | A (0% ≤ substrate protein remaining % ≤ 80%) | B (80%< substrate protein remaining %≤ 100%) | B (80%< substrate protein remaining %≤ 100%) | B (80%< substrate protein remaining %≤ 100%) | B (80%< substrate protein remaining %≤ 100%) | –
6 | O=C1CCC(N2Cc3cc(CN4C[C@@H]5C[C@H]4CN5C(c4ccccc4)c4ccccc4)ccc3C2=S)C(=O)N1 (stereo partly drawn) [GT-07739, 3-(5-(((1S,4S)-5-benzhydryl-2,5-diazabicyclo[2.2.1]heptan-2-yl)methyl)-1-thioxoisoindolin-2-yl)piperidine-2,6-dione] | A (0% ≤ substrate protein remaining % ≤ 80%) | 60 to 80 | 80 to 100 | B (80%< substrate protein remaining %≤ 100%) | A (0% ≤ substrate protein remaining % ≤ 80%) | B (80%< substrate protein remaining %≤ 100%) | B (80%< substrate protein remaining %≤ 100%) | A (0% ≤ substrate protein remaining % ≤ 80%) | – | – | – | – | – | – | –
7 | O=C1CCC(N2Cc3c(CN4CCC(c5noc6cc(F)ccc56)CC4)cccc3C2=S)C(=O)N1 (stereo not drawn) [GT-04997, 3-(4-((4-(6-fluorobenzo[d]isoxazol-3-yl)piperidin-1-yl)methyl)-1-thioxoisoindolin-2-yl)piperidine-2,6-dione] | – | – | – | – | – | – | – | – | B (80%< substrate protein remaining %≤ 100%) | A (0% ≤ substrate protein remaining % ≤ 80%) | B (80%< substrate protein remaining %≤ 100%) | B (80%< substrate protein remaining %≤ 100%) | B (80%< substrate protein remaining %≤ 100%) | B (80%< substrate protein remaining %≤ 100%) | 100 to 500
8 | O=C1CCC(N2Cc3c(CN4CCN(c5nc(N6CCOCC6)nc6c5SCC6)CC4)cccc3C2=S)C(=O)N1 (stereo not drawn) [GT-08968, 3-(4-((4-(2-morpholino-6,7-dihydrothieno[3,2-d]pyrimidin-4-yl)piperazin-1-yl)methyl)-1-thioxoisoindolin-2-yl)piperidine-2,6-dione] | – | 60 to 80 | 80 to 100 | – | – | – | – | – | B (80%< substrate protein remaining %≤ 100%) | A (0% ≤ substrate protein remaining % ≤ 80%) | B (80%< substrate protein remaining %≤ 100%) | B (80%< substrate protein remaining %≤ 100%) | B (80%< substrate protein remaining %≤ 100%) | B (80%< substrate protein remaining %≤ 100%) | –
9 | O=C1CCC(N2Cc3c(CN4CCN(c5nccc(Cl)c5F)CC4)cccc3C2=S)C(=O)N1 (stereo not drawn) [GT-08803, 3-(4-((4-(4-chloro-3-fluoropyridin-2-yl)piperazin-1-yl)methyl)-1-thioxoisoindolin-2-yl)piperidine-2,6-dione] | B (80%< substrate protein remaining %≤ 100%) | 60 to 80 | 80 to 100 | A (0% ≤ substrate protein remaining % ≤ 80%) | B (80%< substrate protein remaining %≤ 100%) | B (80%< substrate protein remaining %≤ 100%) | B (80%< substrate protein remaining %≤ 100%) | B (80%< substrate protein remaining %≤ 100%) | – | – | – | – | – | – | –
10 | O=C1CCC(N2Cc3c(CN4CCN(c5nsc6ccccc56)CC4)cccc3C2=S)C(=O)N1 (stereo not drawn) [GT-08366, 3-(4-((4-(benzo[d]isothiazol-3-yl)piperazin-1-yl)methyl)-1-thioxoisoindolin-2-yl)piperidine-2,6-dione] | B (80%< substrate protein remaining %≤ 100%) | 60 to 80 | 80 to 100 | A (0% ≤ substrate protein remaining % ≤ 80%) | B (80%< substrate protein remaining %≤ 100%) | B (80%< substrate protein remaining %≤ 100%) | B (80%< substrate protein remaining %≤ 100%) | B (80%< substrate protein remaining %≤ 100%) | – | – | – | – | – | – | –
11 | O=C1CCC(N2Cc3c(CN4CCC(c5cccc(Cl)c5Cl)CC4)cccc3C2=S)C(=O)N1 (stereo not drawn) [GT-08269, 3-(4-((4-(2,3-dichlorophenyl)piperidin-1-yl)methyl)-1-thioxoisoindolin-2-yl)piperidine-2,6-dione] | A (0% ≤ substrate protein remaining % ≤ 80%) | 30 to 40 | 53 to 60 | A (0% ≤ substrate protein remaining % ≤ 80%) | B (80%< substrate protein remaining %≤ 100%) | B (80%< substrate protein remaining %≤ 100%) | B (80%< substrate protein remaining %≤ 100%) | B (80%< substrate protein remaining %≤ 100%) | – | – | – | – | – | – | –
